Reference: patent US20260193295A1, “CILAGICIN COMPOUNDS AND METHODS OF USE THEREOF” (priority 2022, published 2026)
≈ marks a conversion by molar mass, not a printed value. Positions of bridges follow the written chain, without caps; N, C: chain ends. Non-standard residues stand in square brackets, D forms with d. Residues, ends and D or L forms follow the SMILES beside them. *: point of attachment. Benzoyl(4-Ph) = O=C(c1ccc(-c2ccccc2)cc1)*; dDab = NCC[C@@H](N)C(=O)O; Dab = NCC[C@H](N)C(=O)O

Columns and labels:
S. aureus USA300 = assay: Neutropenic thigh infection model in mice; assay type: in vivo, Staphylococcus aureus; settings: neutropenic mouse thigh model, S. aureus USA300, 40 mg/kg thrice daily (TID) IP, 24 hours post infection
Experimental: Mice were randomly housed in individually ventilated cages (IVC). The room was set on a twelve-hour light cycle and the temperature was set to 70° F. The humidity was set to 30%. To initiate the neutropenic model, mice were injected with 150 mg/kg and 100 mg/kg of cyclophosphamide via intraperitoneal (IP) injection on days −4 and −1, respectively. On day −1, a single colony of S. aureus USA300 was grown in 15 mL of cation adjusted Mueller Hinton (MH) broth at 37° C. with shaking overnight. On day 0, cells were centrifuged, washed twice in 0.9% sterile saline, and resuspended in sterile 0.9% saline solution to give final optical density (600 nm) of 0.1. 50 μL of bacteria suspension was injected into both thighs via intramuscular (IM) injection. This provides a challenge inoculum of approximately 1.0×10^6 CFU in each thigh in a volume of 50 μL. At 2 hours post infection, mice were given 200 μL of vehicle (10% DMSO), vancomycin (40 mg/kg, 10% DMSO) or cilagicin BP (40 mg/kg, 10% DMSO) at 2, 10, and 18 hours post infection via IP injection. Mice in the pretreatment group (n=4 mice/n=8 thighs) were humanely euthanized by CO2 narcosis to determine the starting thigh bacterial burden. […] All graphic data are expressed as data points by group and were statistically analyzed using Prism software (Prism 9). […]

HEK293 cells = assay type: cell-based, human
Experimental: The cytotoxicity of […] analogs was tested using an MTT (3-(4,5-Dimethyl-2-thiazolyl)-2,5-diphenyl-2H-tetrazolium bromide) assay as previously described ([…] et al., 2006, […]7). HEK293 cells were seeded in a 96-well plate with a density of 5,000 cells/well and cultured in Dulbecco's Modified Eagle Medium (DMEM) supplemented with 10% fetal bovine serum, 1% Pen/Strep and 1% glutamate for 24 hours at 37° C. with 5% CO2. […] After 48 hours of incubation, the media was removed and 110 μL of freshly prepared MTT solution (0.45 mg/mL in DPBS) was added to each well. The plates were incubated for 3 hours at 37° C. with 5% C02 after which the MTT solution was removed by aspiration. […] The absorbance of each well was measured at OD570nm using a microplate reader (Infinite 200 PRO, Tecan). […] All the experiments were performed in triplicates (n=3) and repeated two independent times (n=2).

[1] = tested on: red blood cell (5% sheep blood agar plate); assay type: cell-based
Experimental: The hemolytic activity of cilagicin was evaluated using a red blood cell disc diffusion assay. Cilagicin and other test compounds were dissolved in 10% DMSO to give concentrations ranging from 100 μg/mL to 12.5 μg/mL. 10% (v/v) Triton X-100 and 10% DMSO were used as positive and vehicle controls, respectively. 20 μL of each serially diluted compound was infused on a sterile disc. Infused discs were overlaid on the surface of a 5% sheep blood agar plate (Hardy diagnostics, USA) and incubated at 20° C. for 24 hours. The size of the transparent ring that appeared in the agar plate was measured to determine hemolytic activity. Experiments were performed two independent times. A representative picture was taken of one experiment.

Streptococcus pyrogens = assay type: cell-based
Experimental: (§1) MIC assay were conducted using the protocol recommended by the Clinical and Laboratory Standards Institute.(37) Culture conditions (temperature, medium) are detailed in Table 3. All compounds were dissolved in sterile DMSO (ATCC, USA) to give a concentration of 6.4 mg/mL. Vancomycin hydrochloride was used as positive controls. Tested compounds were serially diluted across 96-well plates using a 2-fold serial dilution in a volume of 50 μL. An overnight culture of an assay strain was diluted 5,000-fold in fresh medium. 50 μL of this dilution was added into each well, giving a final volume of 100 μL in each well. Compounds were assayed at concentrations ranging from 64 μg/mL to 0.06 μg/mL. The top and bottom rows of each plate were filled with 100 μL of media to avoid edge effects. […] For Clostridium difficile plates were statically incubated under anaerobic conditions (Vinyl anaerobic chamber, 37° C., 5% H2, 5% CO2, 90% N2). For Streptococcus pneumoniae plates were statically incubated under aerobic conditions supplemented with 5% C02 (37° C.). All MICs were performed in technical duplicate (n=2) and repeated three independent times (n=3).

Staphylococcus aureus = assay type: cell-based
Experimental: as §1

Streptococcus agalactiae = assay type: cell-based
Experimental: as §1

Enterococcus faecium = assay type: cell-based
Experimental: as §1

Streptococcus pneumoniae = assay type: cell-based
Experimental: as §1

S. pyrogens ATCC19615 = assay: Neutropenic thigh infection model in mice; assay type: in vivo, Streptococcus pyrogens; settings: neutropenic mouse thigh model
Clostridium difficile = assay: MIC assay (broth microdilution); assay type: cell-based; settings: C. difficile HM89
Experimental: as §1

CC(C)[C@@H]1NC(=O)[C@H](Cc2ccc(O)cc2)NC(=O)CNC(=O)[C@@H](CC(=O)O)NC(=O)[C@@H](CC(N)=O)NC(=O)CNC(=O)[C@H](CC(=O)O)NC(=O)[C@@H](CCN)NC(=O)[C@@H](NC(=O)[C@@H](CO)NC(=O)c2ccc(-c3ccccc3)cc2)[C@@H](C)OC(=O)[C@H](Cc2ccccc2)NC(=O)[C@H](CCN)NC1=O [Cilagicin BP] ({Benzoyl(4-Ph)}-[dS]T[dDab]DG[dN][dD]GYV[Dab]F; ester 2-C)
reduction in colony forming units (CFU) compared to the vehicle control (S. aureus USA300): ~4 log10
human cell cytotoxicity (HEK293 cells): no human cell cytotoxicity
hemolytic activity [1]: no hemolytic activity
MIC (Streptococcus pyrogens): 1 µg/mL (≈ 0.696 µM)
MIC (Staphylococcus aureus): 4 µg/mL (≈ 2.78 µM)
antibacterial activity (MIC) in the presence of serum (Staphylococcus aureus; S. aureus, presence versus absence of serum (10% serum)): no increase in MIC
MIC (Streptococcus agalactiae): 16 µg/mL (≈ 11.1 µM)
MIC (Enterococcus faecium): >64 µg/mL
MIC (Streptococcus pneumoniae): 4 µg/mL (≈ 2.78 µM)
reduction in bacterial burden compared to the vehicle control (S. pyrogens ATCC19615; S. pyrogens ATCC19615, 40 mg/kg TID IP, 24 hours post infection): > 5 log10
reduction of bacterial burden compared with vancomycin (S. pyrogens ATCC19615; S. pyrogens, both 40 mg/kg TID): more than a log greater reduction of bacterial burden than vancomycin
MIC (Clostridium difficile): 16 µg/mL (≈ 11.1 µM)
